Holding throughout (assay): drug sensitivity score (DSS) (DSS score); higher = more sensitive (stronger growth inhibition); extreme values may be limits of the assay
The test system of experiment [1] is Ba/F3 P210-BCR-ABL1 RUNX1-/mut (mouse). The gist of the method: (§1)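 Mouse Ba/F3 cells carrying P210-BCR-ABL1, CRISPR/Cas9-edited at runx1 exon 4 or edited-control clones, were screened against a 528-compound library on pre-printed 384-well plates. Each compound ran at five concentrations spanning a 10,000-fold range, with 10,000 cells per well in RPMI with 10% FBS for 72 h at 37 °C and 5% CO2. CellTiter-Glo luminescence was scaled between vehicle and positive-control wells. A drug sensitivity score summarised each dose-response, averaged over two replicates.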

Experiment [2] has as its system Ba/F3 P210-BCR-ABL1 RUNX1-/- (mouse). The gist of the method: as §1
Experiment [3] deals with Ba/F3 P210-BCR-ABL1 RUNX1wt/wt control (mouse). The gist of the method: as §1

This is an account of results in the supplement of paper PMC8024199.

± gives the standard deviation of the averaged measurements.

`CN1CCC(CNc2ccc3ncc(-c4cccc(OC(F)(F)F)c4)n3n2)CC1` [SGI-1776]: the drug sensitivity score came out at 9.65 ± 2.2 in experiment [1], 10.1 ± 0.71 in experiment [2] and 5.2 ± 0.14 in experiment [3].

Turning to `CN(CC(=O)N(Cc1ccc(C2CCCCC2)cc1)c1ccc(C(=O)O)cc1)S(=O)(=O)c1c(F)c(F)c(F)c(F)c1F` [SH-4-54], the drug sensitivity score in experiment [1] stood at 8.35 ± 5.2; in experiment [2] it was 8.95 ± 1.1; in experiment [3], 5.1 ± 0.14.

In the case of `CCc1c2c(nc3ccc(O)cc13)-c1cc3c(c(=O)n1C2)COC(=O)[C@]3(O)CC` [SN-38], the values for the drug sensitivity score in experiment [1], in experiment [2] and in experiment [3] were 29.1 ± 1.8, 33.2 ± 0.99 and 26.9 ± 0.42, respectively.

Consider `Cc1cc2c(C(=O)NC[C@H](C)c3ccccc3)c(O)c(O)cc2c(O)c1-c1c(C)cc2c(C(=O)NC[C@H](C)c3ccccc3)c(O)c(O)cc2c1O` [Sabutoclax], for which the drug sensitivity score in experiment [1] turned out to be 23.5 ± 7.5; in experiment [2], 21.8 ± 6.7; in experiment [3], 19.1 ± 0.49.

`CC[C@@H](C(=O)[C@@H](C)[C@@H](O)[C@H](C)[C@@H]1O[C@@H]([C@@H](CC)C(=O)O)CC[C@@H]1C)[C@H]1O[C@]2(C=C[C@@H](O)[C@]3(CC[C@@](C)([C@H]4CC[C@](O)(CC)[C@H](C)O4)O3)O2)[C@H](C)C[C@@H]1C` [Salinomycin]: the drug sensitivity score in experiment [1] amounted to 17.6 ± 10; in experiment [2] it was 19.6 ± 7.6; in experiment [3] it was 17 ± 8.3.

Turning to `CC(C)n1nc(-c2ccc3oc(N)nc3c2)c2c(N)ncnc21` [Sapanisertib], the drug sensitivity score came to 16.6 ± 2.5 in experiment [1], 16.9 ± 0.35 in experiment [2] and 11.3 ± 0.49 in experiment [3].

Take `CNC(=O)CN1CCC(Oc2cc3c(Nc4cccc(Cl)c4F)ncnc3cc2OC)CC1` [Sapitinib]: the drug sensitivity score in experiment [1] is 0; in experiment [2] it was 0.35 ± 0.49; in experiment [3], 0.

Consider `CC1=C2C[C@H]3[C@@H](CC[C@@H]4C[C@H](NS(C)(=O)=O)CC[C@@]43C)[C@@H]2CC[C@@]2(C1)O[C@@H]1C[C@H](C)CN[C@H]1[C@H]2C` [Saridegib], for which the drug sensitivity score in experiment [1] is 2.15 ± 3; in experiment [2] it was 2.3 ± 0.28; in experiment [3] it was 0.

For `CC[C@H](CO)Nc1nc(NCc2ccccc2)c2ncn(C(C)C)c2n1` [Seliciclib], the figures for the drug sensitivity score in experiment [1], in experiment [2] and in experiment [3] were 0.4 ± 0.57, 1.3 ± 0.14 and 0, respectively.

Consider `O=C(/C=C\n1cnc(-c2cc(C(F)(F)F)cc(C(F)(F)F)c2)n1)NNc1cnccn1` [Selinexor], for which the drug sensitivity score was 23 ± 0.99 in experiment [1], 24 ± 1.7 in experiment [2] and 16.55 ± 0.071 in experiment [3].

On to `Cc1cc(F)c(C(=O)Nc2cccc(-c3nncn3C(C)C)n2)cc1-n1cnc(C2CC2)c1` [Selonsertib], for which the drug sensitivity score in experiment [1], in experiment [2] and in experiment [3] was 0 in each case.

For `CN1CCN(C(=O)c2ccc3cc(CCNc4ncnc5ccc(C#N)cc45)ccc3c2)CC1` [Senexin B], the drug sensitivity score came to 1.1 ± 1.6 in experiment [1], 0.8 in experiment [2] and 0.15 ± 0.21 in experiment [3].

For the compound `COCC[n+]1c2c(n(Cc3cnccn3)c1C)C(=O)c1ccccc1C2=O` [Sepantronium bromide], the drug sensitivity score in experiment [1] is 17.1 ± 1.1; in experiment [2], 12.9 ± 1.5; in experiment [3] it was 6.85 ± 0.49.

For the compound `Nc1nc2cc(-c3ccc4ncc(C(=O)N5CCOCC5)n4c3)ccc2o1` [Serabelisib], the drug sensitivity score came to 2.5 ± 3.5 in experiment [1], 1.5 ± 1.4 in experiment [2] and 0 in experiment [3].

Take `O=C(O)c1ccc2c(c1)nc(Nc1cccc(Cl)c1)c1ccncc12` [Silmitasertib]: the drug sensitivity score in experiment [1] was found to be 7.25 ± 2; in experiment [2], 6.45 ± 0.071; in experiment [3], 4.05 ± 0.21.

As for `CCC(C)(C)C(=O)O[C@H]1C[C@@H](C)C=C2C=C[C@H](C)[C@H](CC[C@@H]3C[C@@H](O)CC(=O)O3)[C@H]21` [Simvastatin], the drug sensitivity score in experiment [1] was 0.6 ± 0.85; in experiment [2], 0.4 ± 0.42; in experiment [3], 0.05 ± 0.071.

`CO[C@H]1C[C@@H]2CC[C@@H](C)[C@@](O)(O2)C(=O)C(=O)N2CCCC[C@H]2C(=O)O[C@H]([C@H](C)C[C@@H]2CC[C@@H](O)[C@H](OC)C2)CC(=O)[C@H](C)/C=C(\C)[C@@H](O)[C@@H](OC)C(=O)[C@H](C)C[C@H](C)/C=C/C=C/C=C/1C` [Sirolimus]: the drug sensitivity score in experiment [1] was found to be 8.4 ± 3.4; in experiment [2], 7.6 ± 1.7; in experiment [3], 0.5 ± 0.71.

In the case of `COCCNCc1ccc(-c2cc3nccc(Oc4ccc(NC(=O)C5(C(=O)Nc6ccc(F)cc6)CC5)cc4F)c3s2)nc1` [Sitravatinib], the drug sensitivity score in experiment [1] was 4.6 ± 0.71; in experiment [2], 8.95 ± 0.35; in experiment [3] it was 0.

For `Cc1c(C(=O)Nc2ccc(N3C[C@@H](C)O[C@@H](C)C3)nc2)cccc1-c1ccc(OC(F)(F)F)cc1` [Sonidegib], the drug sensitivity score was found to be 1.3 ± 1.8 in experiment [1], 1.3 ± 1.8 in experiment [2] and 0.15 ± 0.21 in experiment [3].

For the compound `C=CCN(/C=C1/C(=O)O[C@H](COC)[C@@]2(C)C1=C(O)C(=O)C1=C2[C@H](OC(C)=O)C[C@]2(C)C(=O)CC[C@@H]12)CC=C` [Sonolisib], the results for the drug sensitivity score in experiment [1], in experiment [2] and in experiment [3] were 0.7 ± 0.99, 1.7 ± 1.1 and 0, respectively.

As for `C=CC(=O)Nc1cccc(Nc2nc(Nc3ccc(OCCOC)cc3)ncc2F)c1` [Spebrutinib], the drug sensitivity score in experiment [1], in experiment [2] and in experiment [3] was 0 in each case.

Turning to `CC(C)n1cnc2c(NCCc3ccc(O)cc3)nc(-c3csc4ccccc34)nc21` [StemRegenin 1], the drug sensitivity score is 3.05 ± 3.9 in experiment [1], 3.45 ± 2.9 in experiment [2] and 0.8 ± 0.28 in experiment [3].

Turning to `CC(C)(O)CC(=O)NCCn1ccc2ncnc(Nc3ccc(Oc4cccc(C(F)(F)F)c4)c(Cl)c3)c21` [TAK-285], the results for the drug sensitivity score in experiment [1], in experiment [2] and in experiment [3] were 0.5 ± 0.71, 0 and 0, respectively.

Consider `CCS(=O)(=O)c1cccc(-c2cc(C(=O)NC3CCN(C)CC3)c(C)c3[nH]c4ncc(C)cc4c23)c1` [TAK-901], for which the drug sensitivity score was 3.55 ± 0.49 in experiment [1], 5.8 ± 0.99 in experiment [2] and 0 in experiment [3].

Regarding `Cc1cccc(-c2[nH]c(CNc3ccccc3F)nc2-c2ccc3ncnn3c2)n1` [TEW-7197], the drug sensitivity score in experiment [1] was 0; in experiment [2], 2.35 ± 3.3; in experiment [3], 0.

Turning to `Nc1nc(N)c2nc(-c3cccc(O)c3)c(-c3cccc(O)c3)nc2n1` [TG100-115], the drug sensitivity score in experiment [1] was found to be 4.65 ± 0.49; in experiment [2], 3.1 ± 0.57; in experiment [3], 0.

`CC(C)Oc1ccc(-c2nn([C@@H](C)c3oc4ccc(F)cc4c(=O)c3-c3cccc(F)c3)c3ncnc(N)c23)cc1F` [TGR-1202]: the values for the drug sensitivity score in experiment [1], in experiment [2] and in experiment [3] were 1.2 ± 1.4, 3.4 ± 0.99 and 0, respectively.

With `Cc1cc(C(C)Nc2ccccc2)c2nc(N3CCOCC3)cc(=O)n2c1` (stereo unspecified) [TGX-221], the drug sensitivity score in experiment [1] is 2.4 ± 3.1; in experiment [2] it was 2.7 ± 2.4; in experiment [3], 0.

Regarding `Nc1nc(NC2CC2)cc(-c2cccc(Cl)c2Cl)n1` [TH588], the drug sensitivity score in experiment [1] turned out to be 4.45 ± 4.7; in experiment [2], 5.45 ± 0.35; in experiment [3], 3.6 ± 1.1.

On to `Clc1ccccc1C(c1ccccc1)(c1ccccc1)n1cccn1` [TRAM-34], for which the drug sensitivity score in experiment [1], in experiment [2] and in experiment [3] was 0 throughout.

For the compound `CN(C(=O)c1ccc(F)cc1C(F)(F)F)C1CCN(c2nnc(-c3ccnn3C)c3ccccc23)CC1` [Taladegib], the results for the drug sensitivity score in experiment [1], in experiment [2] and in experiment [3] were 1.8 ± 2.5, 0.85 ± 1.2 and 0, respectively.

As to `Cn1ncnc1[C@H]1c2n[nH]c(=O)c3cc(F)cc(c23)N[C@@H]1c1ccc(F)cc1` [Talazoparib], the drug sensitivity score in experiment [1] was found to be 16.2 ± 5; in experiment [2], 15 ± 5.5; in experiment [3], 2.7 ± 0.14.

With `C[C@@H]1CN(Cc2ccc(F)cc2)[C@@H](C)CN1C(=O)c1cc2c(C(=O)C(=O)N(C)C)cn(C)c2cc1Cl` [Talmapimod], the results for the drug sensitivity score in experiment [1], in experiment [2] and in experiment [3] were 0.1 ± 0.14, 0.25 ± 0.35 and 0, respectively.

Consider `COc1cc(Nc2ncc(F)c(Nc3ccc4c(n3)NC(=O)C(C)(C)O4)n2)cc(OC)c1OC` [Tamatinib], for which the drug sensitivity score in experiment [1] was 4.15 ± 0.071; in experiment [2] it was 7.15 ± 0.78; in experiment [3], 5.8 ± 0.28.

As to `CC/C(=C(\c1ccccc1)c1ccc(OCCN(C)C)cc1)c1ccccc1` [Tamoxifen], the drug sensitivity score in experiment [1] was 7.5 ± 1.3; in experiment [2] it was 6.2 ± 1.6; in experiment [3], 3.5 ± 0.28.

Take `O[C@H]1CC[C@H](Nc2ncc3nc(Nc4c(F)cc(F)cc4F)n([C@H]4CCOC4)c3n2)CC1` [Tanzisertib]: the drug sensitivity score in experiment [1] came to 1 ± 1.4; in experiment [2] it was 1.55 ± 0.78; in experiment [3], 0.

Turning to `Cc1nc(-c2cn3c(n2)-c2ccc(-c4cnn(C(C)(C)C(N)=O)c4)cc2OCC3)n(C(C)C)n1` [Taselisib], the values for the drug sensitivity score in experiment [1], in experiment [2] and in experiment [3] were 3.1 ± 4.1, 4.65 ± 0.49 and 0.4 ± 0.57, respectively.
